Article PMC12119673, “Apoptotic cell death induced by copper (II), manganese (II) and silver (I) complexes containing bridging dicarboxylate and 1,10-phenanthroline ligands: one of the multi-modes of anticancer activity?” (Biometals, 2025)

Assays:
Assay type in all cases: cell-based, human
[1] = system: caspase-3/7 in MCF-7 cells; assay: Caspase 3/7 expression, FLICA (FAM-DEVD-FMK) flow cytometry; settings: MCF-7, IC25 concentration, 24 h
Procedure: (§1) The expression of caspase-3/7 in MCF-7 and MCF-12A cells was determined using the VybrantTM FAM™ Caspase-3 and Caspase-7 Assay Kit (Cat# V35118) (Thermo Fisher Scientific, Ireland). Cells were seeded at a density of 1 × 10^5 in T25 flasks and incubated in routine conditions for 24 h. […] Post-exposure, the cells were harvested for staining.
(§2) Flow cytometry data analysis was performed with the CytExpert package (Ver. 2.4) (Beckman Coulter, USA) and Microsoft^Ⓡ Excel (USA). The mean MFI and percentage cells were calculated using these packages, followed by one-way ANOVA analysis with post hoc Bonferroni correction using GraphPad Prism (Ver. 9.4) (GraphPad, USA).
(§3) The expression of caspase-3/7 was analysed in MCF-7 and MCF-12A cells using fluorescent labelled inhibitors of caspase (FLICA): FAM-DEVD-FMK. […] Following the apoptosis induction study, it was of interest to determine whether the complexes were stimulating the executioner caspases triggering the irreversible proteolytic degradation of cells, culminating in cell death. […] These three complexes were selected based on their structural similarities, while incorporating alternative metal centres.

[2] = system: caspase-3/7 in MCF-12A cells; assay: as above; settings: IC25 concentration, 24 h
Procedure: as §1, §2, §3

MCF-7 cells = assay: Apoptosis induction, Annexin V / propidium iodide flow cytometry; settings: MCF-7, IC25 concentration, 24 h
Procedure: MCF-7 and MCF-12A cells were seeded at a density of 1 × 10^5 in T25 flasks (Sarstedt, Germany) and incubated for 24 h at 37 °C with 5% CO2 allowing for attachment. Post -incubation, the media was removed, cells were washed with sterile PBS and then treated using IC25 concentrations established from the in vitro cytotoxicity screen. […] After the exposure period, the cells were enzymatically detached using trypsin, collected and centrifuged at 1200RPM for 10 min. The cells were then washed with PBS, re-centrifuged and resuspended in 1 ml of annexin binding buffer. Prior to staining, the concentration of each sample was adjusted to 1 × 10^6 cells/ml. The cells were stained with 1 μl of propidium iodide (PI) (Sigma, Ireland) (Cat #P4864) and 2 μl of Annexin V (Thermo Fisher Scientific, Ireland) (Cat #A13199). The cells were incubated at room temperature for 15 min prior to analysis. The staining process was completed in the dark to eliminate interference with photo-sensitive reagents. Immediately prior to analysis by flow cytometry, 400 μl of annexin binding buffer was added to each sample. Samples were analysed using a (CytoFLEX) (Beckman Coulter, USA). The AV/PI assay was completed three independent times.
as §2
The induction of apoptosis was analysed in MCF-7 and MCF-12A cells using the Annexin V and Propidium Iodide assay with flow cytometry. […] The assay allows for the differentiation of viable, apoptotic and necrotic cells based on the selective staining of Annexin V and PI. Annexin V binds to phosphatidylserines externalised to the outer leaflet of the plasma membrane during apoptosis; and PI is a membrane impermeable dye that binds to DNA of necrotic cells with compromised plasma membranes.

[3] = In vitro cytotoxicity assessment, alamar blue assay, 24-h exposure; settings: human, MCF-12A cells; MCF-12A, 24-h exposure, 50% reduction in metabolic activity, mean ± SD (N = 3); read-out: Cytotoxic activity IC50 ± SD
Procedure: The MCF-7 (human breast cancer) and MCF-12A (non-tumourigenic human breast) cell lines were obtained from the Technological University Dublin (TUDublin, City Campus) internal cell bank and commercially from the American Type Culture Collection (ATCC), respectively. Both cell lines were cultured using Dulbecco’s Modified Eagle Medium/Nutrient Mixture F-12 Ham (DMEM-F12) (Sigma, Ireland) (Cat# D6421) media. The MCF-7 media was supplemented with 10% Foetal Bovine Serum (Sigma, Ireland) (Cat# F7524) and 1% L-Glutamine (Sigma, Ireland) (Cat# 592020C). The MCF-12A media was supplemented with 5% Equine Serum (Sigma, Ireland) (Cat# H0146) 1.25% L-Glutamine (Sigma, Ireland) (Cat# 592020C), 20 ng/ml Human Epidermal Growth Factor (Thermo Fisher Scientific, Ireland) (Cat# PHG0313), 0.01 mg/ml insulin (Thermo Fisher Scientific, Ireland)(Cat# 12585014) and 500 ng/ml hydrocortisone (Sigma, Ireland) (Cat# H0888). The cells were grown in T75 culture flasks (Sarstedt, Germany) (Cat# 83.3911.002) and were incubated in a 5% CO2 atmosphere at 37 ℃. The cells were monitored daily, and once 80–90% confluence was reached, they were subcultured with an enzymatic dissociation method using trypsin. Both cell lines were routinely subcultured for 1 week prior to beginning experimental work, to ensure the cells had adapted to the environment.
The MCF-7 and MCF-12A cells were seeded at a density of 1 × 10^4 in 96-well flat bottom plates (Sarstedt, Germany) (Cat# 83.3924) and incubated in a 5% CO2 atmosphere at 37 ℃ for 24 h prior to exposure to the complexes. Following the incubation period, the media was removed, and cells were washed with sterile phosphate-buffered saline (PBS). […] All agents were diluted in supplemented cell culture media, and the cells were exposed to a concentration range of 0.5 μM–100 μM for 24 h in the conditions outlined previously. Following the exposure period, the drug-containing media was removed, and cells were washed three times with PBS, ensuring complete removal of the test agents. A 5% working solution of Alamar Blue (Thermo Fisher Scientific, Ireland) (Cat# DAL1100) was prepared in dark conditions using unsupplemented cell culture media. 100 μl of the solution was added to each well, and the cells were incubated for 3 h. Following incubation, absorbance values were obtained using a Varioskan Lux (Thermo Scientific, USA) at 570 nm and 600 nm wavelengths. Each exposure was carried out in triplicate plates and was repeated three independent times.
The software packages Microsoft^Ⓡ Excel (USA) and GraphPad Prism (Ver. 10.0.3) (GraphPad, USA) were used to analyse the alamar blue data. The treated sample values were first normalised to the negative control values. After normalisation, the mean and standard deviations (SD) were established using Microsoft^Ⓡ Excel. The statistical analysis package GraphPad was then used to determine the IC25 and IC50 concentrations. […] A p value of 0.05 or lower is considered to be statistically significant.

| Compound | Expression of caspase-3/7 (% cells) [1] | Necrotic population (% cells) (MCF-7 cells) | further results |
| --- | --- | --- | --- |
| O=C([O-])CCCCCCC(=O)[O-].[Cu+2].c1cnc2c(c1)ccc1cccnc12.c1cnc2c(c1)ccc1cccnc12 [Complex 2, [Cu(oda)(phen)2]] | highest expression of caspase-3/7 |  |  |
| O=C([O-])CCCCCCC(=O)[O-].[Ag+].[Ag+].c1cnc2c(c1)ccc1cccnc12.c1cnc2c(c1)ccc1cccnc12.c1cnc2c(c1)ccc1cccnc12 [Complex 4, [Ag2(oda)(phen)3]] |  |  | Expression of caspase-3/7 (% cells) [2]: highest expression |
| O=C([O-])CCCCCCCCCC(=O)[O-].[Ag+].[Ag+].c1cnc2c(c1)ccc1cccnc12.c1cnc2c(c1)ccc1cccnc12.c1cnc2c(c1)ccc1cccnc12 [Complex 5, [Ag2(udda)(phen)3]] |  | significant population |  |
| c1cnc2c(c1)ccc1cccnc12 [Phen, 1,10-Phenanthroline] |  |  | IC50 at 24 h [3]: 20.9 ± 1.96 µM |
| {[Mn2(oda)3(phen)4]^2−[Mn2(oda)(phen)4 (H2O)2]^2+} [Complex 7] | lowest expression levels of the three complexes | necrotic population also observed |  |
